Legend:
Assay in all cases: microbe, parasite or virus in culture
[1] = test system: A. nosocomialis clinical isolate; assay type: cell-based; conditions: isolate ARC7023 (IHMA 2118812), France, BSI, 2019
Protocol: (§1) The following report describes the genomic analysis of these isolates for likely resistance mechanisms. Biochemical analysis of purified PBP3 and phenotypic analyses of both clinical and isogenic strains were also conducted to determine the relative impact of key resistance determinants to SUL-DUR antibacterial activity.
(§2) Antimicrobial susceptibility testing was performed using broth microdilution following standardized methods established by the Clinical Laboratory Standards Institute (CLSI) ([35], [36]). […] MIC values were interpreted using CLSI breakpoints for all antimicrobial agents except those for which CLSI breakpoints are not available ([35]). SUL-DUR was tested as twofold dilutions of sulbactam in combination with a fixed concentration of 4 µg/mL durlobactam ([35]).

[2] = test system: A. pittii clinical isolates; assay type: cell-based
Protocol: as §1, §2

[3] = test system: A. baumannii clinical isolates; assay type: cell-based
Protocol: as §1, §2

[4] = test system: ABC clinical isolates with SUL-DUR MIC > 4 µg/mL; assay type: cell-based, Acinetobacter baumannii-calcoaceticus complex
Protocol: as §1, §2

SMILES: CN(C)c1ccc(O)c2c1C[C@H]1C[C@H]3[C@H](N(C)C)C(O)=C(C(N)=O)C(=O)[C@@]3(O)C(O)=C1C2=O [MIN]
- MIC [1]: 0.5 µg/mL
- MIC ([2]; isolate ARC6949 (IHMA 1898982), Romania, RTI, 2018): 0.5 µg/mL
- MIC ([2]; isolate ARC6951 (IHMA 1776233), Philippines, RTI, 2018): 0.25 µg/mL
- MIC ([2]; isolate ARC6952 (IHMA 1899008), Romania, RTI, 2018): 1 µg/mL
- MIC ([2]; isolate ARC7087 (IHMA 2212062), Colombia, BSI, 2020): ≤0.12 µg/mL
- MIC ([3]; isolate ARC6644 (IHMA 1420327), Mexico, UTI, 2016): 8 µg/mL
- MIC ([3]; isolate ARC6645 (IHMA 1435703), France, UTI, 2016): 0.5 µg/mL
- MIC ([3]; isolate ARC6646 (IHMA 1484127), United States, RTI, 2016): 8 µg/mL
- MIC ([3]; isolate ARC6647 (IHMA 1386786), Argentina, RTI, 2016): 1 µg/mL
- MIC ([3]; isolate ARC6648 (IHMA 1407634), Spain, RTI, 2016): 1 µg/mL
- MIC ([3]; isolate ARC6650 (IHMA 1457337), Argentina, RTI, 2016): 4 µg/mL
- MIC ([3]; isolate ARC6652 (IHMA 1465642), Belgium, RTI, 2016): ≤0.12 µg/mL
- MIC ([3]; isolate ARC6653 (IHMA 1308777), Vietnam, RTI, 2016): 16 µg/mL
- MIC ([3]; isolate ARC6799 (IHMA 1562935), Spain, UTI, 2017): >16 µg/mL
- MIC ([3]; isolate ARC6800 (IHMA 1557526), Turkey, RTI, 2017): 2 µg/mL
- MIC ([3]; isolate ARC6801 (IHMA 1662094), Thailand, RTI, 2017): 0.5 µg/mL
- MIC ([3]; isolate ARC6802 (IHMA 1557073), Spain, UTI, 2017): >16 µg/mL
- MIC ([3]; isolate ARC6803 (IHMA 1589408), Belgium, UTI, 2017): ≤0.12 µg/mL
- MIC ([3]; isolate ARC6805 (IHMA 1558650), United States, RTI, 2017): 8 µg/mL
- MIC ([3]; isolate ARC6808 (IHMA 1557168), Spain, RTI, 2017): 16 µg/mL
- MIC ([3]; isolate ARC6809 (IHMA 1699528), Guatemala, RTI, 2017): ≤0.12 µg/mL
- MIC ([3]; isolate ARC6810 (IHMA 1699548), Guatemala, RTI, 2017): 1 µg/mL
- MIC ([3]; isolate ARC6812 (IHMA 1699530), Guatemala, RTI, 2017): 0.25 µg/mL
- MIC ([3]; isolate ARC6813 (IHMA 1699543), Guatemala, UTI, 2017): 0.25 µg/mL
- MIC ([3]; isolate ARC6814 (IHMA 1699512), Guatemala, RTI, 2017): 4 µg/mL
- MIC ([3]; isolate ARC6815 (IHMA 1699513), Guatemala, RTI, 2017): 0.25 µg/mL
- MIC ([3]; isolate ARC6816 (IHMA 1699521), Guatemala, RTI, 2017): 8 µg/mL
- MIC ([3]; isolate ARC6817 (IHMA 1699523), Guatemala, RTI, 2017): ≤0.12 µg/mL
- MIC ([3]; isolate ARC6818 (IHMA 1683261), Thailand, RTI, 2017): ≤0.12 µg/mL
- MIC ([3]; isolate ARC6819 (IHMA 1683267), Thailand, RTI, 2017): 8 µg/mL
- MIC ([3]; isolate ARC6820 (IHMA 1647876), Argentina, RTI, 2017): 4 µg/mL
- MIC ([3]; isolate ARC6821 (IHMA 1699517), Guatemala, RTI, 2017): ≤0.12 µg/mL
- MIC ([3]; isolate ARC6822 (IHMA 1637626), Guatemala, RTI, 2017): 0.25 µg/mL
- MIC ([3]; isolate ARC6823 (IHMA 1620872), Greece, SSSI, 2017): 8 µg/mL
- MIC ([3]; isolate ARC6824 (IHMA 1625487), Argentina, BSI, 2017): 2 µg/mL
- MIC ([3]; isolate ARC6937 (IHMA 1562926), Spain, UTI, 2017): >16 µg/mL
- MIC ([3]; isolate ARC6950 (IHMA 1820064), Israel, RTI, 2018): 2 µg/mL
- MIC ([3]; isolate ARC6953 (IHMA 1909827), Turkey, IAI, 2018): 0.5 µg/mL
- MIC ([3]; isolate ARC6954 (IHMA 1838192), Guatemala, SSSI, 2018): 0.5 µg/mL
- MIC ([3]; isolate ARC6955 (IHMA 1825425), United States, RTI, 2018): 2 µg/mL
- MIC ([3]; isolate ARC7008 (IHMA 2009813), Thailand, BSI, 2019): 4 µg/mL
- MIC ([3]; isolate ARC7009 (IHMA 2043611), United States, UTI, 2019): 2 µg/mL
- MIC ([3]; isolate ARC7010 (IHMA 2043398), United States, RTI, 2019): 1 µg/mL
- MIC ([3]; isolate ARC7011 (IHMA 2104553), Germany, RTI, 2019): 2 µg/mL
- MIC ([3]; isolate ARC7012 (IHMA 2010001), Thailand, RTI, 2019): 2 µg/mL
- MIC ([3]; isolate ARC7013 (IHMA 1962831), Argentina, RTI, 2019): 1 µg/mL
- MIC ([3]; isolate ARC7014 (IHMA 2045328), Guatemala, IAI, 2019): 16 µg/mL
- MIC ([3]; isolate ARC7015 (IHMA 2045327), Guatemala, UTI, 2019): 0.25 µg/mL
- MIC ([3]; isolate ARC7016 (IHMA 2148441), Brazil, BSI, 2019): 0.5 µg/mL
- MIC ([3]; isolate ARC7017 (IHMA 2148446), Brazil, BSI, 2019): 0.25 µg/mL
- MIC ([3]; isolate ARC7018 (IHMA 2045454), Guatemala, IAI, 2019): 0.25 µg/mL
- MIC ([3]; isolate ARC7019 (IHMA 2114463), Thailand, RTI, 2019): 1 µg/mL
- MIC ([3]; isolate ARC7020 (IHMA 2045326), Guatemala, RTI, 2019): 0.5 µg/mL
- MIC ([3]; isolate ARC7021 (IHMA 1966347), Guatemala, RTI, 2019): 0.25 µg/mL
- MIC ([3]; isolate ARC7022 (IHMA 2045319), Guatemala, IAI, 2019): 1 µg/mL
- MIC ([3]; isolate ARC7024 (IHMA 2059448), Turkey, RTI, 2019): 2 µg/mL
- MIC ([3]; isolate ARC7025 (IHMA 2002121), Spain, RTI, 2019): 8 µg/mL
- MIC ([3]; isolate ARC7026 (IHMA 2104494), Guatemala, BSI, 2019): 2 µg/mL
- MIC ([3]; isolate ARC7082 (IHMA 2160640), Belgium, BSI, 2020): 16 µg/mL
- MIC ([3]; isolate ARC7083 (IHMA 2163687), United States, RTI, 2020): 16 µg/mL
- MIC ([3]; isolate ARC7084 (IHMA 2189596), Germany, RTI, 2020): 1 µg/mL
- MIC ([3]; isolate ARC7085 (IHMA 2205747), Guatemala, IAI, 2020): 1 µg/mL
- MIC ([3]; isolate ARC7086 (IHMA 2207563), Israel, RTI, 2020): 2 µg/mL
- MIC ([3]; isolate ARC7088 (IHMA 2215554), Turkey, BSI, 2020): 16 µg/mL
- MIC ([3]; isolate ARC7089 (IHMA 2240345), Argentina, BSI, 2020): 2 µg/mL
- MIC ([3]; isolate ARC7090 (IHMA 2244410), Poland, RTI, 2020): 4 µg/mL
- MIC ([3]; isolate ARC7091 (IHMA 2244564), Australia, RTI, 2020): ≤0.12 µg/mL
- MIC ([3]; isolate ARC7092 (IHMA 2258772), United States, BSI, 2020): 4 µg/mL
- MIC ([3]; isolate ARC7093 (IHMA 2258783), United States, RTI, 2020): 8 µg/mL
- MIC ([3]; isolate ARC7094 (IHMA 2296423), Turkey, RTI, 2020): 2 µg/mL
- MIC ([3]; isolate ARC7095 (IHMA 2320843), Turkey, BSI, 2020): 8 µg/mL
- MIC ([3]; isolate ARC7156 (IHMA 2455450), Greece, RTI, 2021): >16 µg/mL
- MIC ([3]; isolate ARC7158 (IHMA 2523738), Italy, BSI, 2021): 2 µg/mL
- MIC ([3]; isolate ARC7159 (IHMA 2456229), Malaysia, RTI, 2021): 4 µg/mL
- MIC ([3]; isolate ARC7160 (IHMA 2458626), Thailand, RTI, 2021): 1 µg/mL
- MIC ([3]; isolate ARC7161 (IHMA 2429252), Ukraine, RTI, 2021): 16 µg/mL
- MIC ([3]; isolate ARC7162 (IHMA 2411847), United States, BSI, 2021): 2 µg/mL
- MIC ([3]; isolate ARC7163 (IHMA 2477704), United States, BSI, 2021): 2 µg/mL
- MIC50 [4]: 2 µg/mL
- MIC90 [4]: 16 µg/mL
- MIC Max [4]: >16 µg/mL
- MIC Min [4]: ≤0.12 µg/mL
- %NS (% non-susceptibility) ([4]; 64 non-clonal ABC isolates, 2023 CLSI breakpoints plus FDA breakpoint of 4 µg/mL for SUL-DUR): 27%

Source: article PMC10648852, “Molecular drivers of resistance to sulbactam-durlobactam in contemporary clinical isolates of Acinetobacter baumannii” (Antimicrobial Agents and Chemotherapy, 2023)
